Laboratory results reported in patent US20240368192A1, “Nitrogen-Containing Heterocyclic Compound, and Preparation Method Therefor, Intermediate Thereof, and Application Thereof” (Shanghai Allist Pharmaceuticals Co., Ltd., priority 2021, published 2024).
Structures can show the parent of a compound that is named as a salt. Where two headings read alike, the source gives them in different places.

Assays:
Ba/F3 KRAS-G12D cells = Ba/F3 KRAS-G12D cells (Homo sapiens, UniProt P01116, G12D, cells depend on it); assay: Proliferation inhibitory activity on Ba/F3 KRAS-G12D stably transfected cell line (CellTiter-Glo, 72 hours); assay type: cell-based, mouse; settings: read-out: Ba/F3 KRAS-G12D IC50
Ba/F3 KRAS-G12D cells, sequence (P01116 whole entry G12D): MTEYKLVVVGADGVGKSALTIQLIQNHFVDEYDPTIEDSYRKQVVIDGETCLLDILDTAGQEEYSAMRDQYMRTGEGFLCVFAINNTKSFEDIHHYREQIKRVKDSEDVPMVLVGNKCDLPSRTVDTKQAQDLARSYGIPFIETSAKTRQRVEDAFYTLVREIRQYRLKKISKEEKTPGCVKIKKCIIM
Source text: (§1) Test Example 1: Proliferation Inhibitory Activity on Ba/F3 KRAS-G12D, Ba/F3 KRAS-G12V Stably Transfected Cell Lines and AGS Tumor Cell Lines Containing KRAS G12D Mutations
(§2) To determine the proliferation inhibitory activity of the compounds in vitro on mouse pro-B cells Ba/F3 (Ba/F3 KRAS-G12D and Ba/F3 KRAS-G12V cells stably expressing KRAS G12D/V mutant proteins) and gastric cancer AGS cells expressing KRAS G12D mutant protein.
(§3) Cell sources. Ba/F3 KRAS-G12D and Ba/F3 KRAS-G12V were purchased from Kyinno Biotech (Beijing) Co., Ltd, Cat. No.: KC-1259 and KC-1261, respectively; AGS was purchased from Shanghai Bioleaf Biotech Co., Ltd.
(§4) Cells in the logarithmic growth phase were seeded in a 96-well plate (8000, 8000, 4000 cells/well, 90 μL/well for Ba/F3 KRAS-G12D, Ba/F3 KRAS-G12V, and AGS cells respectively), incubated at 37° C. for 1 day with 5% CO2, and then a gradient dilution of the test compound was added thereto (compounds 1 to 28 and comparative compounds). The details were as follows, the compound stock solution (10 mM) previously dissolved in DMSO was diluted to 10 gradient concentrations at a fold ratio (4 fold) and diluted to 10 fold of the target concentration in another 96-well plate with culture medium, and then 10 μL/well of the compound solution was added to the 96-well plate seeded with cells to reach the target concentration (10000, 2500, 625, 156, 39, 10, 2.5, 0.6, 0.15, 0.04 nM). Each concentration was provided with 3 duplicate wells and a blank control. After continued incubation at 37° C. and 5% CO2 for 72 hours, 50 μL of CellTiter-Glo*2.0 reagent (luciferase ATP bioluminescence detection reagent, purchased from Promega, Cat. No.: G9243) was added to each well, shaken for 2 minutes, and incubated at room temperature for 8 minutes, and then fluorescence luminescence intensity was detected (light collection time was 100 ms). The inhibitory rate of compounds with various concentrations on cell proliferation was calculated. Cell proliferation inhibition rate (%)=[(luminous intensitycontrol group containing cell culture medium for 72 hour−luminous intensitycompound group for 72 hour)/(luminous intensitycontrol group containing cell culture medium for 72 hours−luminous intensitycontrol group without cell culture medium for 72 hour)]×100%. GraphPad Prism 8.3 software was used to analyze the data, and nonlinear S-curve regression was used to fit the data to obtain a dose-effect curve, from which the IC50 value was calculated.

AGS cells = assay: Proliferation inhibitory activity on AGS tumor cell line containing KRAS G12D mutation (CellTiter-Glo, 72 hours); assay type: cell-based
Source text: as §1, §2, §3, §4

Ba/F3 KRAS-G12V cells = Ba/F3 KRAS-G12V cells (Homo sapiens, UniProt P01116, G12V, cells depend on it); assay: Proliferation inhibitory activity on Ba/F3 KRAS-G12V stably transfected cell line (CellTiter-Glo, 72 hours); assay type: cell-based, mouse; settings: read-out: Ba/F3 KRAS-G12V IC50
Ba/F3 KRAS-G12V cells, sequence (P01116 whole entry G12V): as the sequence (P01116 whole entry G12D) above, with D12V counted along it
Source text: as §1, §2, §3, §4

C#Cc1c(F)ccc2cc(O)cc(-c3ncc4c(N5C[C@H](N)CC(F)(F)C5)nc(OC[C@@]56CCCN5C[C@H](F)C6)nc4c3F)c12 [Compound 6-P1, 4-(4-((R)-5-Amino-3,3-difluoropiperidin-1-yl)-8-fluoro-2-(((2R,7aS)-2-fluorotetrahydro-1H-pyrrolizin-7a(5H)-yl)methoxy)pyrido[4,3-d]pyrimidin-7-yl)-5-ethynyl-6-fluoronaphthalen-2-ol]
GI50 (Ba/F3 KRAS-G12D cells): 0.1 to 5 µM
IC50 (AGS cells; Homo sapiens): 5 to 10 µM
GI50 (Ba/F3 KRAS-G12V cells): 5 to 10 µM

C#Cc1c(F)ccc2cc(O)cc(-c3ncc4c(N5[C@@H]6CC[C@H]5[C@H](F)[C@@H](N)C6)nc(OC[C@@]56CCCN5C[C@H](F)C6)nc4c3F)c12 [Compound 25, 4-(4-((1S,2R,3S,5R)-3-Amino-2-fluoro-8-azabicyclo[3.2.1]octan-8-yl)-8-fluoro-2-(((2R,7aS)-2-fluorohexahydro-1H-pyrrolizin-7a-yl)methoxy)pyrido[4,3-d]pyrimidin-7-yl)-5-ethynyl-6-fluoronaphthalen-2-ol]
GI50 (Ba/F3 KRAS-G12D cells): 1 µM
IC50 (AGS cells; Homo sapiens): 2.5 µM
GI50 (Ba/F3 KRAS-G12V cells): 5 to 10 µM

C#Cc1c(F)ccc2cc(O)cc(-c3ncc4c(N5CCC(N)C(F)(F)C5)nc(OC[C@@]56CCCN5C[C@H](F)C6)nc4c3F)c12 (single isomer, unassigned) [Compound 20-P1]
GI50 (Ba/F3 KRAS-G12D cells): ≤ 0.1 µM
IC50 (AGS cells; Homo sapiens): 0.1 to 5 µM
GI50 (Ba/F3 KRAS-G12V cells): 5 to 10 µM

[2H]C#Cc1c(F)ccc2cc(O)cc(-c3nc(Cl)c4c(N5C[C@H]6CC[C@@H](C5)N6)nc(OC[C@@]56CCCN5C[C@H](F)C6)nc4c3F)c12 [Compound 28, 4-(4-((1R,5S)-3,8-Diazabicyclo[3.2.1]octan-3-yl)-5-chloro-8-fluoro-2-(((2R,7aS)-2-fluorotetrahydro-1H-pyrrolizin-7a(5H)-yl)methoxy)pyrido[4,3-d]pyrimidin-7-yl)-5-(ethynyl-d)-6-fluoronaphthalen-2-ol hydrochloride]
GI50 (Ba/F3 KRAS-G12D cells): 0.001 µM
IC50 (AGS cells; Homo sapiens): 0.006 µM

Cc1cc(N)nc(-c2nc(F)c3c(N4C[C@H]5CC[C@@H](C4)N5)nc(OC[C@@]45CCCN4C[C@H](F)C5)nc3c2F)c1C(F)(F)F [Compound 18, 6-(4-((1R,5S)-3,8-Diazabicyclo[3.2.1]octan-3-yl)-5,8-difluoro-2-(((2R,7aS)-2-fluorohexahydro-1H-pyrrolizin-7a-yl)methoxy)pyrido[4,3-d]pyrimidin-7-yl)-4-methyl-5-(trifluoromethyl)pyridin-2-amine bis(2,2,2-trifluoroacetate)]
GI50 (Ba/F3 KRAS-G12D cells): 0.1 to 5 µM
IC50 (AGS cells; Homo sapiens): 5 to 10 µM
GI50 (Ba/F3 KRAS-G12V cells): 5 to 10 µM

Cc1cc(N)nc(-c2nc(Cl)c3c(N4C[C@H]5CC[C@@H](C4)N5)nc(OC[C@@]45CCCN4C[C@H](F)C5)nc3c2F)c1C(F)(F)F [Compound 17, 6-(4-((1R,5S)-3,8-Diazabicyclo[3.2.1]octan-3-yl)-5-chloro-8-fluoro-2-(((2R,7aS)-2-fluorohexahydro-1H-pyrrolizin-7a-yl)methoxy)pyrido[4,3-d]pyrimidin-7-yl)-4-methyl-5-(trifluoromethyl)pyridin-2-amine bis(2,2,2-trifluoroacetate)]
GI50 (Ba/F3 KRAS-G12D cells): 0.1 to 5 µM
IC50 (AGS cells; Homo sapiens): 5 to 10 µM
GI50 (Ba/F3 KRAS-G12V cells): 5 to 10 µM

C#Cc1c(F)ccc2cc(O)cc(-c3ncc4c(N5[C@H]6CC[C@@H]5[C@@H](F)[C@H](N)C6)nc(OC[C@@]56CCCN5C[C@H](F)C6)nc4c3F)c12 [Compound 24, 4-4-(4-((1R,2S,3R,5S)-3-Amino-2-fluoro-8-azabicyclo[3.2.1]octan-8-yl)-8-fluoro-2-(((2R,7aS)-2-fluorohexahydro-1H-pyrrolizin-7a-yl)methoxy)pyrido[4,3-d]pyrimidin-7-yl)-5-ethynyl-6-fluoronaphthalen-2-ol]
GI50 (Ba/F3 KRAS-G12D cells): 1.9 µM
IC50 (AGS cells; Homo sapiens): 2.5 µM
GI50 (Ba/F3 KRAS-G12V cells): 5 to 10 µM

C#Cc1c(F)ccc2cc(O)cc(-c3ncc4c(N5C[C@@H](N)CC(F)(F)C5)nc(OC[C@@]56CCCN5C[C@H](F)C6)nc4c3F)c12 [Compound 6-P2, 4-(4-((S)-5-amino-3,3-difluoropiperidin-1-yl)-8-fluoro-2-(((2R,7aS)-2-fluorotetrahydro-1H-pyrrolizin-7a(5H)-yl)methoxy)pyrido[4,3-d]pyrimidin-7-yl)-5-ethynyl-6-fluoronaphthalen-2-ol]
GI50 (Ba/F3 KRAS-G12D cells): ≤ 0.1 µM
IC50 (AGS cells; Homo sapiens): 0.1 to 5 µM
GI50 (Ba/F3 KRAS-G12V cells): 5 to 10 µM

C#Cc1c(F)ccc2cc(O)cc(-c3ncc4c(N5C[C@H]6C[C@@]6(N)C5)nc(OC[C@@]56CCCN5C[C@H](F)C6)nc4c3F)c12 [Compound 10, 4-(4-((1S,5R)-1-Amino-3-azabicyclo[3.1.0]hexan-3-yl)-8-fluoro-2-(((2R,7aS)-2-fluorohexahydro-1H-pyrrolizin-7a-yl)methoxy)pyrido[4,3-d]pyrimidin-7-yl)-5-ethynyl-6-fluoronaphthalen-2-ol bis(2,2,2-trifluoroacetate)]
GI50 (Ba/F3 KRAS-G12D cells): 0.1 to 5 µM
IC50 (AGS cells; Homo sapiens): 0.1 to 5 µM
GI50 (Ba/F3 KRAS-G12V cells): 5 to 10 µM

C#Cc1c(F)ccc2cc(O)cc(-c3ncc4c(N5CCC(N)C(F)(F)C5)nc(OC[C@@]56CCCN5C[C@H](F)C6)nc4c3F)c12 (single isomer, unassigned) [Compound 20-P2]
GI50 (Ba/F3 KRAS-G12D cells): 0.1 to 5 µM
IC50 (AGS cells): 0.1 to 5 µM
GI50 (Ba/F3 KRAS-G12V cells): 5 to 10 µM

C#Cc1c(F)ccc2cc(O)cc(-c3nc(F)c4c(N5C[C@H]6CC[C@@H](C5)N6)nc(OC[C@@]56CCCN5C[C@H](F)C6)nc4c3F)c12 [Compound 22, 4-(4-((1R,5S)-3,8-Diazabicyclo[3.2.1]octan-3-yl)-5,8-difluoro-2-(((2R,7aS)-2-fluorohexahydro-1H-pyrrolizin-7a-yl)methoxy)pyrido[4,3-d]pyrimidin-7-yl)-5-ethynyl-6-fluoronaphthalen-2-ol]
GI50 (Ba/F3 KRAS-G12D cells): 0.002 µM
IC50 (AGS cells; Homo sapiens): 0.016 µM
GI50 (Ba/F3 KRAS-G12V cells): 5 to 10 µM

Oc1cc(-c2nc(Cl)c3c(N4C[C@H]5CC[C@@H](C4)N5)nc(OC[C@@]45CCCN4C[C@H](F)C5)nc3c2F)c2c(F)c(F)ccc2c1 [Compound 26, 4-(4-((1R,5S)-3,8-diazabicyclo[3.2.1]octan-3-yl)-5-chloro-8-fluoro-2-(((2R,7aS)-2-fluorohexahydro-1H-pyrrolizin-7a-yl)methoxy)pyrido[4,3-d]pyrimidin-7-yl)-5,6-difluoronaphthalen-2-ol]
GI50 (Ba/F3 KRAS-G12D cells): 0.0017 µM
IC50 (AGS cells; Homo sapiens): 0.028 µM
GI50 (Ba/F3 KRAS-G12V cells): 5 to 10 µM
